Results taken from patent US9725490B2, “ERAP1-derived peptide and use thereof” (TOKUSHIMA UNIVERSITY, priority 2011, dated 2017).

Tests used:
KPL-3C tumor = assay: In vivo inhibition of tumor proliferation, concomitant use with tamoxifen, KPL-3C transplant; design: species or system BALB/c nude mouse; conditions: intraperitoneal every day, day 14
Description: FIG. 18 is a diagram illustrating the influence of concomitant use of the ERAP1-peptide and tamoxifen on tumor proliferation in a human breast cancer-transplanted mouse. KPL-3 cells were subcutaneously transplanted into the breast fat body of a BALB/c nude mouse. The treatment test individuals/group) was initiated (day 0) when the volume of the tumor reached about 50-80 mm^3 in the absence E2.
KPL-3 cells were subcutaneously transplanted into the breast fat body of a BALB/c nude mouse. When the volume of the tumor reached about 50-80 mm^3 in the absence of E2, the treatment test (5 individuals/group) was initiated (day 0). KPL-3C tumor heterotransplant-carrying mouse was administered with the ERAP1-peptide alone (3.5, 7 and 14 mg/kg), the scramble peptide alone (14 mg/kg), tamoxifen alone (4 mg/kg) or a combination of the ERAP1-peptide (14 mg/kg) and tamoxifen (4 mg/kg) every day by intraperitoneal injection.

[1] = Stability of ERAP1-peptide in MCF-7 cells, immunoblotting; format: in vitro ADME, human
Protocol: FIG. 37 is a diagram illustrating the results of evaluations for the stability of the ERAP1-peptide and the influence of the ERAP1-peptide on cellular E2. […] MCF-7 cells were treated with 10 μM HA-tagged ERAP1-peptide. Then, immediately, the cells were temporally stimulated with 10 nM E2. The data are standardized with β-actin, and show the ratio when the value at 1 hour (n=1, 3) or at 3 hours (n=2) is designated as 100. […] MCF-7 cells were treated with 10 μM ERAP1-peptide. Then, immediately, the cells were temporally stimulated with 10 nM E2. The cell lysate was centrifuged, and then the supernatant and a precipitate lysed with methanol were mixed (final concentration of methanol: 10%), and the cellular E2 concentration was measured with a commercially available kit (17β-estradiol ELISA kit, Wako Pure Chemical Industries, Ltd.).

[2] = tested on: protein expression in MCF-7 cells; assay: 2DICAL proteome analysis, MCF-7; format: cell-based, human; conditions: 10 μM, 10 nM E2 1 hour, versus E2 or E2 + scramble
Protocol: MCF-7 cells were treated with 10 μM ERAP1-peptide (Peptide) and the ERAP1-scramble peptide (scrPeptide). Then, immediately, the cells were stimulated with 10 nM E2 for 1 hour. Subsequently, the obtained cell lysate solution was digested with trypsin and subjected to 2DICAL. […] MCF-7 cells were treated with 10 μM ERAP1-peptide. Then, immediately, the cells were stimulated with 10 nM E2 for 5, 10 and 15 hours. Then, RNA extraction and then Cy3-cRNA synthesis were performed, and the Cy3-cRNA was subjected to the microarray. The data were statistically analyzed by GeneSpring software, and the ratio to the value at 0 hour was calculated. **P<0.01.
MCF-7 cells were treated with 10 μM ERAP1-peptide and ERAP1-scramble peptide. Then, immediately, the cells were stimulated with 10 nM E2. Then, the cells were fixed with methanol. The cells were dried under reduced pressure, and then treated with trypsin in the presence of 2% sodium deoxycholate and 5 M urea at 37° C. for 20 hours. The protein was extracted with ethyl acetate. […] The data were calculated as a ratio to the value at 0 hour.

[3] = tested on: ERα interaction with IGF-1Rβ, Shc, PI3K; Akt and MAPK phosphorylation; assay: Non-genomic activation route, immunoprecipitation/immunoblotting, MCF-7; format: cell-based, human
Protocol: MCF-7 cells were treated with the ERAP1-peptide. Then, immediately, the cells were stimulated with 10 nM E2 for 24 hours. Then, the cytoplasm fraction was immunoprecipitated with anti-ERα antibody. […] MCF-7 cells were treated with the ERAP1-peptide. Then, immediately, the cells were stimulated with 10 nM E2 for 24 hours. Then the cytoplasm fraction was immunoprecipitated with anti-ERα antibody or anti-PHB2 antibody.
FIG. 10-2 is a diagram illustrating that the ERAP1-peptide regulates E2-induced non-genomic activation route via IGF-1Rβ and Shc. […] BT-474 cells were treated with the ERAP1-peptide and/or E2 for 24 hours. Then, the cytoplasm fraction was immunoprecipitated with anti-ERα antibody.
As described in the item of “Western blotting analysis”, the cells were lysed with a 0.1% NP-40 lysis buffer. The cell lysate was precleaned using normal IgG and rec-Protein G Sepharose 4B (Zymed, San Francisco, Calif., USA) at 4° C. for 3 hours. After centrifuge separation, the supernatant was incubated in the presence of an anti-ERAP1 antibody, an anti-PHB2 antibody and an anti-ERα antibody at 4° C. for 6 hours. Then, the supernatant was incubated in the presence of rec-Protein G Sepharose 4B at 4° C. for 1 hour, to precipitate an antigen-antibody complex. The immunoprecipitated protein complex was washed with a lysis buffer three times, and separated by SDS-PAGE. Then, Western blotting analysis was performed by the method described previously (Kim J W, et al. Cancer Sci. 2009; 100: 1468-78.).

Row | Molecule | antitumor effect (tumor volume) (KPL-3C tumor) | residual percentage of the ERAP1-peptide ([1]; 24 hours after the administration, on average) | residual percentage of the ERAP1-peptide ([1]; after 30 hours) | residual percentage of the ERAP1-peptide ([1]; after 36 hours) | residual percentage of the ERAP1-peptide ([1]; after 48 hours) | half-life ([1]; human, in MCF-7 cells) | change of protein expressions [2] | binding of ERα and PI3K ([3]; cytoplasm fraction, 24 hours) | binding of ERα and Shc and of ERα and IGF-1Rβ ([3]; cytoplasm fraction, 24 hours) | phosphorylation of Ser473 of Akt and phosphorylation of MAPK ([3]; time course to 24 hours)
1 | CSCC[C@H](NC(=O)[C@H](CCC(N)=O)NC(=O)[C@H](CCCNC(=N)N)NC(=O)[C@H](CCCNC(=N)N)NC(=O)[C@H](CCCNC(=N)N)NC(=O)[C@H](CCCNC(=N)N)NC(=O)[C@H](CCCNC(=N)N)NC(=O)[C@H](CCCNC(=N)N)NC(=O)[C@H](CCCNC(=N)N)NC(=O)[C@H](CCCNC(=N)N)NC(=O)[C@H](CCCNC(=N)N)NC(=O)[C@H](CCCNC(=N)N)NC(=O)[C@@H](N)CCCNC(=N)N)C(=O)N[C@@H](CC(C)C)C(=O)N[C@@H](CO)C(=O)N[C@@H](CC(=O)O)C(=O)N[C@@H](CC(C)C)C(=O)N[C@H](C(=O)N[C@@H](CC(C)C)C(=O)N[C@@H](CCC(N)=O)C(=O)N[C@@H](CC(C)C)C(=O)N[C@@H](CCCNC(=N)N)C(=O)N[C@@H](CCC(N)=O)C(=O)N[C@@H](CCCNC(=N)N)C(=O)O)[C@@H](C)O [ERAP1-peptide] | dose-dependent (3.5, 7 and 14 mg/kg) antitumor effect | 84% | 56% | 58% | 54% | ~1800 min | decreased significantly and genome-widely | inhibit the binding of ERα and PI3K | inhibited the binding of ERα and Shc and the binding of ERα and IGF-1Rβ | inhibited respectively within 3 hours after addition of the ERAP1-peptide, and the suppression was maintained even after 24 hours
2 | DRQLQLSTLQRML (SEQ ID NO: 28) (ERAP1-scramble peptide) [reference compound] | the effect was not recognized |  |  |  |  |  |  |  |  | 
